pIC50: −log10 of the molar value. Structures can show the parent of a compound that is named as a salt.
The molecules below were run on BMP signal in MDA-231-D-BREFluc/Rluc cells (assay: BMP signal inhibitory effect (AlphaScreen SureFire SMAD1 p-Ser463/465, BMP-6 stimulation)). Conditions: not given.
Format: cell-based
Method in brief: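 MDA-231-D-BREFluc/Rluc cells were pretreated with compound for 2 h at 37° C, then stimulated with BMP-6 for 30 min. SMAD1 p-Ser463/465 in lysates was measured by AlphaScreen SureFire.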

Point of comparison: `CCn1cc(-c2ccnc(Nc3ccc(C(=O)N(C)C4CC5CCC(C4)N5C(C)C)cc3)n2)c(-c2cccnc2)n1` (stereo not shown) [Example 5, 4-((4-(1-Ethyl-3-(pyridin-3-yl)-1H-pyrazol-4-yl)pyrimidin-2-yl)amino)-N-(8-isopropyl-8-azabicyclo[3.2.1]octan-3-yl)-N-methylbenzamide], pIC50 7.77. Against it:
- CCn1cc(-c2ccnc(Nc3ccc(N4CC5CCC(C4)N5CCOC)cc3)n2)c(-c2cccnc2)n1 [Example 86, 4-(1-Ethyl-3-(pyridin-3-yl)-1H-pyrazol-4-yl)-N-(4-(8-(2-methoxyethyl)-3,8-diazabicyclo[3.2.1]octan-3-yl)phenyl)pyrimidin-2-amine] — within 0.2 log units, 7.89
- CCn1cc(-c2ccnc(Nc3ccc(C(=O)N4CC5CCC(C4)N5C4CCCC4)cc3)n2)c(-c2cccnc2)n1 [Example 118, (8-Cyclopentyl-3,8-diazabicyclo [3.2.1]octan-3-yl) (4-((4-(1-ethyl-3-(pyridin-3-yl)-1H-pyrazol-4-yl)pyrimidin-2-yl)amino)phenyl) methanone] — 0.30 log units higher, 8.07

Same assay, conditions: BMP-6 stimulated MDA-231-D-BREFluc/Rluc cells, phospho-SMAD1 AlphaScreen; read-out: IC50

Point of comparison: `CCn1cc(-c2ccnc(Nc3ccc(-c4cn5ccccc5n4)cc3)n2)c(-c2cccnc2)n1` [Example 14, 4-(1-ethyl-3-(pyridin-3-yl)-1H-pyrazol-4-yl)-N-(4-(imidazo[1,2-a]pyridin-2-yl)phenyl)pyrimidin-2-amine], pIC50 7.44. Against it:
- CCn1cc(-c2ccnc(Nc3cccc(N4CCN(C)CC4)c3)n2)c(-c2cccnc2)n1 [Example 34, 4-(1-ethyl-3-(pyridin-3-yl)-1H-pyrazol-4-yl)-N-(3-(4-methylpiperazin-1-yl)phenyl)pyrimidin-2-amine] — 0.32 log units higher, 7.76
- c1cncc(-c2nn(C3COC3)cc2-c2ccnc(Nc3ccc(N4CCN(CC5CC5)CC4)cc3)n2)c1 [Example 103, N-(4-(4-(Cyclopropylmethyl)piperazin-1-yl)phenyl)-4-(1-(oxetan-3-yl)-3-(pyridin-3-yl)-1H-pyrazol-4-yl)pyrimidin-2-amine] — 0.54 log units higher, 7.98
- CCn1cc(-c2ccnc(Nc3ccc(N4CCN(CC(O)COC)CC4)cc3)n2)c(-c2cccnc2)n1 (stereo not shown) [Example 105, 1-(4-(4-((4-(1-Ethyl-3-(pyridin-3-yl)-1H-pyrazol-4-yl)pyrimidin-2-yl)amino)phenyl)piperazin-1-yl)-3-methoxypropan-2-ol] — within 0.2 log units, 7.47
- CC(C)(O)Cn1cc(-c2ccnc(Nc3ccc(C4CCN(C5COC5)CC4)cc3)n2)c(-c2cccnc2)n1 [Example 132] — within 0.2 log units, 7.60
- CCn1cc(-c2ccnc(Nc3ccc(C4CCN(C5COC5)CC4)cc3)n2)c(-c2cccnc2)n1 [Example 11, 4-(1-Ethyl-3-(pyridin-3-yl)-1H-pyrazol-4-yl)-N-(4-(1-(oxetan-3-yl)piperidin-4-yl)phenyl)pyrimidin-2-amine] — within 0.2 log units, 7.53
- CCn1cc(-c2ccnc(Nc3ccc(OC4CN(CCOC)C4)cc3)n2)c(-c2cccnc2)n1 [Example 92, 4-(1-Ethyl-3-(pyridin-3-yl)-1H-pyrazol-4-yl)-N-(4-((1-(2-methoxyethyl)azetidin-3-yl)oxy)phenyl) pyrimidin-2-amine] — 0.48 log units higher, 7.92
- CCn1cc(-c2ccnc(Nc3ccc(C4CCCN(CCOC)C4)cc3)n2)c(-c2cccnc2)n1 (stereo not shown) [Example 100, 4-(1-Ethyl-3-(pyridin-3-yl)-1H-pyrazol-4-yl)-N-(4-(1-(2-methoxyethyl)piperidin-3-yl)phenyl)pyrimidin-2-amine] — 0.29 log units higher, 7.73
- CCn1cc(-c2ccnc(Nc3cc(F)c(N4CCNCC4)c(F)c3)n2)c(-c2cccnc2)n1 [Example 153, N-(3,5-Difluoro-4-(piperazin-1-yl)phenyl)-4-(1-ethyl-3-(pyridin-3-yl)-1H-pyrazol-4-yl)pyrimidin-2-amine] — 0.75 log units higher, 8.19
- CCn1cc(-c2ccnc(Nc3cccc(CN(C)C)c3)n2)c(-c2cccnc2)n1 [Example 40, N-(3-((dimethylamino)methyl)phenyl)-4-(1-ethyl-3-(pyridin-3-yl)-1H-pyrazol-4-yl)pyrimidin-2-amine] — 0.86 log units higher, 8.30
- CCn1cc(-c2ccnc(Nc3ccc4c(c3)CCN(C3CC3)CC4)n2)c(-c2cccnc2)n1 [Example 66, 3-Cyclopropyl-N-(4-(1-ethyl-3-(pyridin-3-yl)-1H-pyrazol-4-yl)pyrimidin-2-yl)-2,3,4,5-tetrahydro-1H-benzo[d]azepin-7-amine] — 0.75 log units higher, 8.19
- CCn1cc(-c2ccnc(Nc3ccc(N4CCN(CCOC)CC4)c(F)c3)n2)c(-c2cccnc2)n1 [Example 18, 4-(1-Ethyl-3-(pyridin-3-yl)-1H-pyrazol-4-yl)-N-(3-fluoro-4-(4-(2-methoxyethyl)piperazin-1-yl)phenyl)pyrimidin-2-amine] — within 0.2 log units, 7.51
- CCn1cc(-c2ccnc(Nc3ccc(N4CCN(C5CCOCC5)CC4)cc3)n2)c(-c2cccnc2)n1 [Example 130, 4-(1-Ethyl-3-(pyridin-3-yl)-1H-pyrazol-4-yl)-N-(4-(4-(tetrahydro-2H-pyran-4-yl)piperazin-1-yl)phenyl)pyrimidin-2-amine] — 0.47 log units higher, 7.91
- CCn1cc(-c2ccnc(Nc3ccc(-c4ccncc4)cc3)n2)c(-c2cccnc2)n1 [Example 134, 4-(1-Ethyl-3-(pyridin-3-yl)-1H-pyrazol-4-yl)-N-(4-(pyridin-4-yl)phenyl)pyrimidin-2-amine] — 0.22 log units higher, 7.66
- COCCN1CCN(c2ccc(Nc3nccc(-c4cn(Cc5ccccc5C#N)nc4-c4cccnc4)n3)cc2)CC1 [Example 82] — 0.30 log units higher, 7.74
- CCn1cc(-c2ccnc(Nc3ccc4c(c3)CCN(C3COC3)C4)n2)c(-c2cccnc2)n1 [Example 95, N-(4-(1-Ethyl-3-(pyridin-3-yl)-1H-pyrazol-4-yl)pyrimidin-2-yl)-2-(oxetan-3-yl)-1,2,3,4-tetrahydroisoquinolin-6-amine] — 0.39 log units higher, 7.83
- CCn1cc(-c2ccnc(Nc3cnn(C4CCN(CCOC)CC4)c3)n2)c(-c2cccnc2)n1 [Example 55, 4-(1-ethyl-3-(pyridin-3-yl)-1H-pyrazol-4-yl)-N-(1-(1-(2-methoxyethyl)piperidin-4-yl)-1H-pyrazol-4-yl)pyrimidin-2-amine oxalate] — 0.23 log units higher, 7.67
- CCn1cc(-c2ccnc(Nc3ccc4c(c3)CCN(CC3CCCO3)C4)n2)c(-c2cccnc2)n1 (stereo not shown) [Example 89, N-(4-(1-Ethyl-3-(pyridin-3-yl)-1H-pyrazol-4-yl)pyrimidin-2-yl)-2-((tetrahydrofuran-2-yl)methyl)-1,2,3,4-tetrahydroisoquinolin-6-amine] — 0.80 log units higher, 8.24
- CCn1cc(-c2ccnc(Nc3ccc(-n4cnc(C)n4)cc3)n2)c(-c2cccnc2)n1 [Example 26, 4-(1-ethyl-3-(pyridin-3-yl)-1H-pyrazol-4-yl)-N-(4-(3-methyl-1H-1,2,4-triazol-1-yl)phenyl)pyrimidin-2-amine] — 0.29 log units higher, 7.73
- CCn1cc(-c2ccnc(Nc3ccc(N4CCN(C5CC5)CC4)cc3)n2)c(-c2cccnc2)n1 [Example 32, N-(4-(4-cyclopropylpiperazin-1-yl)phenyl)-4-(1-ethyl-3-(pyridin-3-yl)-1H-pyrazol-4-yl)pyrimidin-2-amine] — 0.23 log units higher, 7.67
- CCn1cc(-c2ccnc(Nc3ccc(N4CCN(CC5CCCN5C)CC4)cc3)n2)c(-c2cccnc2)n1 (stereo not shown) [Example 78, 4-(1-Ethyl-3-(pyridin-3-yl)-1H-pyrazol-4-yl)-N-(4-(4-((1-methylpyrrolidin-2-yl)methyl)piperazin-1-yl)phenyl)pyrimidin-2-amine] — 0.46 log units higher, 7.90
- CCn1cc(-c2ccnc(Nc3cnn(C4CCN(C5COC5)CC4)c3)n2)c(-c2cccnc2)n1 [Example 128, 4-(1-Ethyl-3-(pyridin-3-yl)-1H-pyrazol-4-yl)-N-(1-(1-(oxetan-3-yl)piperidin-4-yl)-1H-pyrazol-4-yl)pyrimidin-2-amine] — within 0.2 log units, 7.49
- CCn1cc(-c2ccnc(Nc3ccc(CCN4CCNCC4)cc3)n2)c(-c2cccnc2)n1 [Example 159, 4-(1-Ethyl-3-(pyridin-3-yl)-1H-pyrazol-4-yl)-N-(4-(2-(piperazin-1-yl)ethyl)phenyl)-pyrimidin-2-amine] — 0.38 log units higher, 7.82
- CCn1cc(-c2ccnc(Nc3ccc(N4CCC(N5CCN(C)CC5)CC4)cc3)n2)c(-c2cccnc2)n1 [Example 20] — 0.49 log units higher, 7.93
- CCn1cc(-c2ccnc(Nc3cnn(C4CCN(CC(C)(C)O)CC4)c3)n2)c(-c2cccnc2)n1 [Example 54, 1-(4-(4-((4-(1-Ethyl-3-(pyridin-3-yl)-1H-pyrazol-4-yl)pyrimidin-2-yl)amino)-1H-pyrazol-1-yl)piperidin-1-yl)-2-methylpropan-2-ol] — 0.65 log units higher, 8.09
- CCn1cc(-c2ccnc(Nc3ccc(N4CCN(CC5CCOC5)CC4)cc3)n2)c(-c2cccnc2)n1 (stereo not shown) [Example 97, 4-(1-Ethyl-3-(pyridin-3-yl)-1H-pyrazol-4-yl)-N-(4-(4-((tetrahydrofuran-3-yl)methyl)piperazin-1-yl)phenyl)pyrimidin-2-amine] — 0.38 log units higher, 7.82
- CCn1cc(-c2ccnc(Nc3ccc(OC4CNC4)cc3)n2)c(-c2cccnc2)n1 [Example 145, N-(4-(Azetidin-3-yloxy)phenyl)-4-(1-ethyl-3-(pyridin-3-yl)-1H-pyrazol-4-yl)pyrimidin-2-amine] — 0.35 log units higher, 7.79
- CCn1cc(-c2ccnc(Nc3ccc(N4CCC(C)(N(C)C)CC4)cc3)n2)c(-c2cccnc2)n1 [Example 68, N-(4-(4-(Dimethylamino)-4-methylpiperidin-1-yl)phenyl)-4-(1-ethyl-3-(pyridin-3-yl)-1H-pyrazol-4-yl)pyrimidin-2-amine] — 0.73 log units higher, 8.17
- CC(C)N1CCN(C(=O)c2ccc(Nc3nccc(-c4cn(Cc5ccc(F)cc5)nc4-c4cccnc4)n3)cc2)CC1 [Example 121, (4-((4-(1-(4-Fluorobenzyl)-3-(pyridin-3-yl)-1H-pyrazol-4-yl)pyrimidin-2-yl)amino)phenyl)(4-isopropylpiperazin-1-yl)methanone] — 0.27 log units higher, 7.71
- CCn1cc(-c2ccnc(Nc3cccc(C(=O)N4CCN(C(C)C)CC4)c3)n2)c(-c2cccnc2)n1 [Example 122, (3-((4-(1-Ethyl-3-(pyridin-3-yl)-1H-pyrazol-4-yl)pyrimidin-2-yl)amino)phenyl)(4-isopropylpiperazin-1-yl)methanone] — within 0.2 log units, 7.63
- CCn1cc(-c2ccnc(Nc3ccc(N4CCC(N)CC4)cc3)n2)c(-c2cccnc2)n1 [Example 147, N-(4-(4-Aminopiperidin-1-yl)phenyl)-4-(1-ethyl-3-(pyridin-3-yl)-1H-pyrazol-4-yl)pyrimidin-2-amine] — 0.41 log units higher, 7.85

Source: US10954216B2, “BMP-signal-inhibiting compound” (RIKEN, priority 2016, dated 2021)
